# Measurements: patent US12728123B2, “Product” (Sesh Products Inc., priority 2012, dated 2026)
# Conditions: at a pH of about 8.8
smiles,measurement,value
CN1CCCC1c1cccnc1 (stereo not shown) [nicotine],nicotine in the nonprotonated form,approximately 90%
